Measurements reported in ChEMBL document CHEMBL4145649, “Identification of the 4-Position of 3-Alkynyl and 3-Heteroaromatic Substituted Pyridine Methanamines as a Key Modification Site Eliciting Increased Potency and Enhanced Selectivity for Cytochrome P-450 2A6 Inhibition” (J Med Chem, 2018).

What was measured:
[1] = biological target: T1, Cytochrome P450 1A2 (Homo sapiens, UniProt P05177); experiment: Inhibition of CYP1A2 in human liver microsomes using phenacetin as substrate preincubated for 5 mins followed by addition of NADPH-regenerating system and measured after 15 mins by UPLC-MS analysis
T1 sequence (P05177 whole entry): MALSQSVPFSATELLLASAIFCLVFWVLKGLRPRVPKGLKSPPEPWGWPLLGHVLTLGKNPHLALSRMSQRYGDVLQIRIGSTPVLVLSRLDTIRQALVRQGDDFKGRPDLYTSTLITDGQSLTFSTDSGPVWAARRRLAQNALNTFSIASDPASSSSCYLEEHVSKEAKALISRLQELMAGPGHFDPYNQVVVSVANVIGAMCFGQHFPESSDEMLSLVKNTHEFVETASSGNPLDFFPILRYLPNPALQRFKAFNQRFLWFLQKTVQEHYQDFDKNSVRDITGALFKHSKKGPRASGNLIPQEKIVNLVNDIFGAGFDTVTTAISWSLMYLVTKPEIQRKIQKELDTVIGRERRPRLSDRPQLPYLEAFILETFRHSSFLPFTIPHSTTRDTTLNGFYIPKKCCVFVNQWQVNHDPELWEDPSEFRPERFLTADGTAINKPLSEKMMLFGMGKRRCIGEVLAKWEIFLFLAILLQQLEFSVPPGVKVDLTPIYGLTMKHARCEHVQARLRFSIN

[2] = biological target: Cytochrome P450 3A4 (Homo sapiens, UniProt P08684); experiment: Inhibition of CYP3A4 in human liver microsomes using midazolam as substrate preincubated for 5 mins followed by addition of NADPH-regenerating system and measured after 15 mins by UPLC-MS analysis
[3] = biological target: T2, Cytochrome P450 2B6 (Homo sapiens, UniProt P20813); experiment: Inhibition of CYP2B6 in human liver microsomes using bupropion as substrate preincubated for 5 mins followed by addition of NADPH-regenerating system and measured after 15 mins by UPLC-MS analysis
T2 sequence (P20813 whole entry): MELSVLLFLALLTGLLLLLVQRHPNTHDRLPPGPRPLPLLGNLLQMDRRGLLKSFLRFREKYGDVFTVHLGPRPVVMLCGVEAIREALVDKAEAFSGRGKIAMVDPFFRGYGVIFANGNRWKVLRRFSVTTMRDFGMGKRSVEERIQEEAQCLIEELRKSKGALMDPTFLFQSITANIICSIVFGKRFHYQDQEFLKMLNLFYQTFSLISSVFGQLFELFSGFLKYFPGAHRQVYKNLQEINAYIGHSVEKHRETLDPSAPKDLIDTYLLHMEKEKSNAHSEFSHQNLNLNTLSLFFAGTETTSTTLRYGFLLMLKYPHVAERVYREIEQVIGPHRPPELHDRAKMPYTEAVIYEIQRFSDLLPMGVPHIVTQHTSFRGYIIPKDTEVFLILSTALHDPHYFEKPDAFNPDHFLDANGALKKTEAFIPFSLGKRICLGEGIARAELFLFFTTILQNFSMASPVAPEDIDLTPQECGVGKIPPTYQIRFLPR

[4] = biological target: Cytochrome P450 2D6 (Homo sapiens, UniProt P10635); experiment: Inhibition of CYP2D6 in human liver microsomes using dextromethorphan as substrate preincubated for 5 mins followed by addition of NADPH-regenerating system and measured after 15 mins by UPLC-MS analysis
[5] = Half life in human liver microsomes at 10 uM up to 2 hrs at 37 degC in presence of NADPH-regenerating system by UPLC/MS analysis
[6] = biological target: T3, Cytochrome P450 2C8 (Homo sapiens, UniProt P10632); experiment: Inhibition of CYP2C8 in human liver microsomes using amodiaquine as substrate preincubated for 5 mins followed by addition of NADPH-regenerating system and measured after 15 mins by UPLC-MS analysis
T3 sequence (P10632 whole entry): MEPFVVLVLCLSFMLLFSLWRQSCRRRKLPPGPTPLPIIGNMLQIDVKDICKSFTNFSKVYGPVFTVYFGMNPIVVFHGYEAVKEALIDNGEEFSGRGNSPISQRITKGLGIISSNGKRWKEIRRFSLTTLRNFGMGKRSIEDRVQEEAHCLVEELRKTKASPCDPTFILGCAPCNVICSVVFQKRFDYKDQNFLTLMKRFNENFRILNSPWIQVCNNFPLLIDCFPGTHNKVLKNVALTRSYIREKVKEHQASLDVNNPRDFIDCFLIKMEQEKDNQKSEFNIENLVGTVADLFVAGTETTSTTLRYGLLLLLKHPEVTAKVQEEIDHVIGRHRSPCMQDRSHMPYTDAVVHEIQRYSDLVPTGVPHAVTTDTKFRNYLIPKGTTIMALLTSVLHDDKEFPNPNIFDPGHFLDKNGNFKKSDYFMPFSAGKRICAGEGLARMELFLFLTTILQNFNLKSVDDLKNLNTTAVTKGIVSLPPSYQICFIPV

[7] = biological target: Cytochrome P450 2E1 (Homo sapiens, UniProt P05181); experiment: Inhibition of CYP2E1 in human liver microsomes using chlorzoxazone as substrate preincubated for 5 mins followed by addition of NADPH-regenerating system and measured after 15 mins by UPLC-MS analysis
[8] = biological target: Cytochrome P450 2C19 (Homo sapiens, UniProt P33261); experiment: Inhibition of CYP2C19 in human liver microsomes using omeprazole as substrate preincubated for 5 mins followed by addition of NADPH-regenerating system and measured after 15 mins by UPLC-MS analysis
[9] = biological target: Cytochrome P450 2C9 (Homo sapiens, UniProt P11712); experiment: Inhibition of CYP2C9 in human liver microsomes using diclofenac as substrate preincubated for 5 mins followed by addition of NADPH-regenerating system and measured after 15 mins by UPLC-MS analysis
[10] = biological target: T4, Cytochrome P450 2A6 (Homo sapiens, UniProt P11509); experiment: Inhibition of CYP2A6 in human liver microsomes using coumarin as substrate preincubated for 5 mins followed by addition of NADPH-regenerating system and measured after 15 mins by UPLC-MS analysis
T4 sequence (P11509 whole entry): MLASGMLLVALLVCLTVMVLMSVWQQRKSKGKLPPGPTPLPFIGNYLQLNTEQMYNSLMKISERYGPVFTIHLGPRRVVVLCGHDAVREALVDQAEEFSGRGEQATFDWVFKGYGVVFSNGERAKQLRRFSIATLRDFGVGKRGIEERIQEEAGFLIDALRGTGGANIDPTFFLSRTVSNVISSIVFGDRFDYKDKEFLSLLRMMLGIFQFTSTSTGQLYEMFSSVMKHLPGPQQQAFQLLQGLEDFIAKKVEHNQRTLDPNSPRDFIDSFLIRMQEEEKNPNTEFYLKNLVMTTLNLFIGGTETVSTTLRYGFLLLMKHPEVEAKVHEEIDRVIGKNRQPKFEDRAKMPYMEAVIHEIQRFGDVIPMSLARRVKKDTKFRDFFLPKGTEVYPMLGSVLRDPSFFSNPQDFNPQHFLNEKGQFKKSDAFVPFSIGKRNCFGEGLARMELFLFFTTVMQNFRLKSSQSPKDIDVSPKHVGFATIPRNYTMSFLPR

Cytochrome P450 2C9, sequence (P11712 whole entry): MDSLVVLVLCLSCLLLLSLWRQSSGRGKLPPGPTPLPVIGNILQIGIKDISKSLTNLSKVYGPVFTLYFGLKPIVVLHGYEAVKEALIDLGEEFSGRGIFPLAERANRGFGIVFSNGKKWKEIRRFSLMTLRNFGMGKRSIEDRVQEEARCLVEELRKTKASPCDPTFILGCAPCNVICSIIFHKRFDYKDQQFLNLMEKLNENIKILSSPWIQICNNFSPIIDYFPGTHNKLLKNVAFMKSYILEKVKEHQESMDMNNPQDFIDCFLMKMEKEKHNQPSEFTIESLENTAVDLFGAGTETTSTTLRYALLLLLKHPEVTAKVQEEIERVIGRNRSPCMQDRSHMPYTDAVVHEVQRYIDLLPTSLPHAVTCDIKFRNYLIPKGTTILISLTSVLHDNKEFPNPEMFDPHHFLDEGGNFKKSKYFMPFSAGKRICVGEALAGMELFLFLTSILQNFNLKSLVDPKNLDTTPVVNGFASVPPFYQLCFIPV
Cytochrome P450 2D6, sequence (P10635 whole entry): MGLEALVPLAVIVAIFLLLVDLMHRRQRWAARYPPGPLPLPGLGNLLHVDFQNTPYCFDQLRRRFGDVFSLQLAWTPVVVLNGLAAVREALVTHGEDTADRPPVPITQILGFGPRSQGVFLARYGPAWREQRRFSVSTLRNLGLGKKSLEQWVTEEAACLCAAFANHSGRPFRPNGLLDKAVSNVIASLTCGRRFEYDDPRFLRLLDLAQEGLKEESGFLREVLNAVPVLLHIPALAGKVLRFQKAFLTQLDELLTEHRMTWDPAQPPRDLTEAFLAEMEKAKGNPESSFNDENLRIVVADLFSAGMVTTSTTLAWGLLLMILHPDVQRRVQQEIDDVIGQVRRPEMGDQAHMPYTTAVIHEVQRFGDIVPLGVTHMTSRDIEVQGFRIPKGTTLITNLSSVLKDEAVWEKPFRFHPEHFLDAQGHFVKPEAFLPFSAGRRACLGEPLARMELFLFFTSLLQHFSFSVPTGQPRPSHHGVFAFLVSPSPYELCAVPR
Cytochrome P450 2E1, sequence (P05181 whole entry): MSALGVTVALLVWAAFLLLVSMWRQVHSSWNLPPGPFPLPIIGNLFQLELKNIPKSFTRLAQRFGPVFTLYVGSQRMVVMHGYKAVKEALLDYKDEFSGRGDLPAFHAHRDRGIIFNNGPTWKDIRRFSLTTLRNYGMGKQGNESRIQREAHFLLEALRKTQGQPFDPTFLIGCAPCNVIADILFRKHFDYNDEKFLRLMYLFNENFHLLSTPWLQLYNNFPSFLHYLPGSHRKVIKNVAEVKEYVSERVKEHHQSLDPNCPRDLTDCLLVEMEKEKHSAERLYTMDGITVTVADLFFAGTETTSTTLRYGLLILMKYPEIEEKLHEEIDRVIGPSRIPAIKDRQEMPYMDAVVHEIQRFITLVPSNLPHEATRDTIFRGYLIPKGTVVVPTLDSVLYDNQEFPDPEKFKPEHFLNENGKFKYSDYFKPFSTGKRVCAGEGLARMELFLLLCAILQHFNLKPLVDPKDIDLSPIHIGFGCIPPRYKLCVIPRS
Cytochrome P450 2C19, sequence (P33261 whole entry): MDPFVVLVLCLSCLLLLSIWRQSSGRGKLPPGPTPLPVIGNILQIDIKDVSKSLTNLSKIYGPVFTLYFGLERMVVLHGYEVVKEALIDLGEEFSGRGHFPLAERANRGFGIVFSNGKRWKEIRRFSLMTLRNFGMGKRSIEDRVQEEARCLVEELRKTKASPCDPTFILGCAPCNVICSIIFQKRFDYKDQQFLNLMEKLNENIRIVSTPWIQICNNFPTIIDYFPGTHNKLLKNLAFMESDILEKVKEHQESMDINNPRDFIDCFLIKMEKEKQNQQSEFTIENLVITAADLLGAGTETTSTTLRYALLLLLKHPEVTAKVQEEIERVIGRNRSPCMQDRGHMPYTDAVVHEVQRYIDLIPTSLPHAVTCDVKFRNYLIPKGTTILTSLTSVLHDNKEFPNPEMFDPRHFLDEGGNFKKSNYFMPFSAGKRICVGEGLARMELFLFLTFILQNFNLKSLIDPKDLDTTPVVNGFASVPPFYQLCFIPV
Cytochrome P450 3A4, sequence (P08684 whole entry): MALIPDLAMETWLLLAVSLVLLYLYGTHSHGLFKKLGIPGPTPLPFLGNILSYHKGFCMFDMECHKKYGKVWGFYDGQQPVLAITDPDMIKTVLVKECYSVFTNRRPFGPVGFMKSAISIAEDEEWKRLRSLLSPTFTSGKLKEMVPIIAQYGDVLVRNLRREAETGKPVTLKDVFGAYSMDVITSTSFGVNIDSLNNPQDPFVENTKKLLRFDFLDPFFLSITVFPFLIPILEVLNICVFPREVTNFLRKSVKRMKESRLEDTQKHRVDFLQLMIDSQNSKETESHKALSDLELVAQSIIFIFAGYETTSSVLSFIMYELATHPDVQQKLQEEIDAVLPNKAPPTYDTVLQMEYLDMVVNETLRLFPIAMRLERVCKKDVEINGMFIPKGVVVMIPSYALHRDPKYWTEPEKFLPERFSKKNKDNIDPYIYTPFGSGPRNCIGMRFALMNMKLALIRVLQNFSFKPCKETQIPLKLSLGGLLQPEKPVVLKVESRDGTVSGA

Row | IC50 [1] | IC50 [2] | IC50 [3] | IC50 [4] | t1/2 [5] | IC50 [6] | IC50 [7] | IC50 [8] | IC50 [9] | SMILES | IC50 [10]
1 | 21 µM | > 25 µM | > 25 µM | 12 µM | 36 min | > 50 µM | > 25 µM | – | – | Cl.Cl.Cl.NCC#Cc1cnccc1-c1ccncc1 | –
2 | > 25 µM | > 25 µM | > 25 µM | > 25 µM | – | > 50 µM | > 25 µM | – | – | NCC#Cc1cnccc1-c1cncnc1 | –
3 | 1.4 µM | 11 µM | 5 µM | 3.9 µM | – | 7.5 µM | 1.9 µM | 3.7 µM | 2.8 µM | NCC#Cc1cnccc1-c1ccco1 | –
4 | 25 µM | 39 µM | 40 µM | – | > 120 min | > 25 µM | > 50 µM | – | – | Cl.Cl.Cl.Cl.NCc1ccc(-c2cnccc2-c2cncnc2)s1 | –
5 | 7.6 µM | > 25 µM | > 25 µM | – | > 120 min | > 50 µM | > 50 µM | > 25 µM | > 25 µM | Cl.Cl.Cl.Cl.NCc1ccc(-c2cnccc2-c2cncnc2)o1 | –
6 | 4.8 µM | 214 µM | 3.5 µM | – | 32 min | > 25 µM | 31 µM | – | – | Cl.Cl.Cl.NCc1ccc(-c2cnccc2-c2ccncc2)s1 | –

Further lines, the molecule ahead of its results:

Row | SMILES | IC50 [1] | IC50 [2] | IC50 [3] | IC50 [4] | t1/2 [5] | IC50 [6] | IC50 [7] | IC50 [8] | IC50 [9] | IC50 [10]
7 | Cl.Cl.Cl.NCc1ccc(-c2cnccc2-c2cccnc2)o1 | 4.4 µM | 90 µM | 7.8 µM | – | > 120 min | > 25 µM | 31 µM | 13 µM | 28 µM | –
8 | COc1ccncc1C#CCN | 25 µM | > 50 µM | 11 µM | > 50 µM | – | > 50 µM | 18 µM | 9.3 µM | 28 µM | –
9 | NCc1ccc(-c2cnccc2-c2ccco2)s1 | 0.2 µM | 7 µM | 0.073 µM | > 50 µM | – | 3.8 µM | 3.1 µM | 1.4 µM | 4.4 µM | –
10 | NCC#Cc1cncnc1 | – | – | – | – | – | – | – | – | – | > 10 µM
11 | Cc1cncc(C#CCN)c1 | – | – | – | – | – | – | – | – | – | > 10 µM
12 | Cc1ccncc1C#CCN.Cl.Cl | 11 µM | 5.6 µM | 20 µM | 2.4 µM | 8.4 min | 8.6 µM | 19 µM | 8 µM | 36 µM | –
13 | CCc1ccncc1C#CCN.Cl.Cl | > 50 µM | > 50 µM | 19 µM | 6.6 µM | 9.8 min | 25 µM | 15 µM | – | – | –
